Data as given in ChEMBL document CHEMBL1143634, “Calculating virtual log P in the alkane/water system (log P(N)(alk)) and its derived parameters deltalog P(N)(oct-alk) and log D(pH)(alk)” (J Med Chem, 2005).

What was measured:
[1] = Tested for fraction of oral dose absorbed orally in humans; type: ADME; conditions: human
[2] = Lipophilicity determined as logarithm of the partition coefficient in the alkane/water system; conditions: octanol/water

| SMILES | Log PNalk [2] | other results |
| --- | --- | --- |
| O=C(O)c1cc(/N=N/c2ccc(S(=O)(=O)Nc3ccccn3)cc2)ccc1O [SULFASALAZINE] |  | Fa ([1]; read-out: Activity): 13% |
| Cc1cc(=O)n(-c2ccccc2)n1C [ANTIPYRINE] |  | Activity [1]: 97% |
| CC(C)NCC(O)COc1cccc2[nH]ccc12 (stereo unspecified) [PINDOLOL] |  | Activity [1]: 92% |
| CC(=O)[C@H]1CC[C@H]2[C@@H]3CC=C4C[C@@H](O)CC[C@]4(C)[C@H]3CC[C@]12C [PREGNENOLONE] | 0.62 |  |
| O=S(=O)(c1ccccc1)c1ccccc1 [(PHENYLSULFONYL)BENZENE] | 1.45 |  |
| CC(N)Cc1ccccc1 (stereo unspecified) [AMPHETAMINE] | 0.73 |  |
| CCN(CC)CCOC(=O)c1ccc(N)cc1 [PROCAINE] | -0.67 |  |
| COCCc1ccc(OCC(O)CNC(C)C)cc1 (stereo unspecified) [METOPROLOL] | -0.38 |  |
| C=CCc1ccccc1OCC(O)CNC(C)C (stereo unspecified) [ALPRENOLOL] | 1.3 | Activity [1]: 96% |
| COc1ccccc1O [GUAIACOL] | 0.36 |  |
| O=C1NC(=O)C(c2ccccc2)(c2ccccc2)N1 [PHENYTOIN] | -0.3 |  |
| C=CCC1(C(C)CCC)C(=O)NC(=O)NC1=O (stereo unspecified) [SECOBARBITAL] | -0.99 |  |
| OCc1ccccc1 [BENZYL ALCOHOL] | -0.62 |  |
| CCCC(C)C1(CC)C(=O)NC(=O)NC1=O (stereo unspecified) [PENTOBARBITAL] | -1.22 |  |
| Oc1ccc2ccccc2c1 [BETANAPHTHOL] | 0.3 |  |
| COC(=O)c1ccccc1 [METHYL BENZOATE] | 2.13 |  |
| CC(=O)c1ccccc1 [ACETOPHENONE] | 1.14 |  |
| CCCCCC(=O)O [HEXANOATE] | 0.24 |  |
| CCCC(C)C1(CC)C(=O)NC(=S)NC1=O (stereo unspecified) [THIOPENTAL] | 0.52 |  |
| Oc1ccc(C(F)(F)F)cc1 | -0.15 |  |
| O=[N+]([O-])c1ccccc1 [NITROBENZENE] | 1.55 |  |
| Nc1ccccc1 [ANILINE] | 0.03 |  |
| COc1cccc(O)c1 [1-hydroxy-3-methoxybenzene] | -0.88 |  |
| C[S+]([O-])c1ccccc1 (stereo unspecified) [METHYLPHENYLSULFOXIDE] | -1.52 |  |
| c1ccc(-c2ccccc2)cc1 [BIPHENYL] | 4 |  |
| CC(C)(C)NC[C@H](O)COc1nsnc1N1CCOCC1 [TIMOLOL] | -1 |  |
| C[C@]12CC[C@@H]3c4ccc(O)cc4CC[C@H]3[C@@H]1C[C@@H](O)[C@@H]2O [ESTRIOL] | -0.64 |  |
| Fc1ccccc1 [FLUOROBENZENE] | 2.46 |  |

| SMILES | Log PNalk [2] | other results |
| --- | --- | --- |
| CN[C@@H](C)Cc1ccccc1 [METHAMPHETAMINE] | 1.24 |  |
| [O-][n+]1ccc2ccccc2c1 | -2.51 |  |
| Cc1ccccc1N [O-TOLYLAMINE] | 0.47 |  |
| c1ccc2[nH]ccc2c1 [INDOLE] | 0.68 |  |
| c1ccc2cnccc2c1 [ISOQUINOLINE] | 1.11 |  |
| CNC(=O)Oc1ccc2c(c1)[C@]1(C)CCN(C)[C@@H]1N2C [PHYSOSTIGMINE] | -0.46 |  |
| COc1ccc(C(=O)O)cc1 [p-ANISIC ACID] | -0.15 |  |
| CC(=O)CC(c1ccccc1)c1c(O)c2ccccc2oc1=O (stereo unspecified) [WARFARIN] | 0.05 |  |
| O=[N+]([O-])c1ccc(O)cc1 [P-NITROPHENOL] | -2.15 |  |
| CCCCCO [1-PENTANOL] | -0.4 |  |
| Cc1ncc2c(c1O)COC2c1ccc(Cl)cc1 (stereo unspecified) [CICLETANINE] | -1.76 |  |
| Oc1cc(Cl)cc(Cl)c1 | 0.35 |  |
| CCCC(C)=O | 0.43 |  |
| Nc1ccc(/N=N/c2ccccc2)c(N)n1 [PHENAZOPYRIDINE] | 0.42 |  |
| Cn1c(=O)c2[nH]cnc2n(C)c1=O.O [THEOPHYLLINE] | -1.7 |  |
| COc1ccc([C@@H]2Sc3ccccc3N(CCN(C)C)C(=O)[C@@H]2OC(C)=O)cc1 [DILTIAZEM] | 1.37 |  |
| CCCCC(C)=O | 0.87 |  |
| OC[C@@H](O)[C@@H](O)[C@H](O)[C@H](O)CO [MANNITOL] |  | Activity [1]: 26% |
| Nc1cccc(Cl)c1 [3-CHLOROANILINE] | 0.71 |  |
| Oc1ccccc1 [PHENOL] | -0.82 |  |
| Cc1cccc(O)c1 [METACRESOL] | -0.35 |  |
| CC(=O)[C@H]1CC[C@H]2[C@@H]3CCC4=CC(=O)CC[C@]4(C)[C@H]3CC[C@]12C [PROGESTERONE] | 1.23 |  |
| CSc1ccccc1 | 2.81 |  |
| C[C@]12CC[C@@H]3c4ccc(O)cc4CC[C@H]3[C@@H]1CCC2=O [ESTRONE] | 0.48 |  |
| Clc1ccccc1 [CHLOROBENZENE] | 2.99 |  |
| COc1ccc(Cc2nccc3cc(OC)c(OC)cc23)cc1OC [PAPAVERINE] | 0.75 |  |
| CC(C)CO [ISOBUTANOL] | -0.98 |  |
